In ChEMBL document CHEMBL6134831 (Eur J Med Chem, 2025):
The source made the active and inactive calls. No cut-off for these calls is given here.

What was measured:
[1] = system: Mus musculus; assay: Antihyperlipidemic activity in Triton WR-1339 induced hyperlipidemic male Swiss albino mouse model assessed as amelioration of islet cell disruption at 13 mg/kg, po pre-treated with compound for 6 days followed by triton WR-1339 induction and measured after 24 hrs by H&E staining based microscopic analysis; assay type: functional, organism-based; conditions: time 7.0 day
[2] = system: Mus musculus; assay: Antihyperlipidemic activity in Triton WR-1339 induced hyperlipidemic male Swiss albino mouse model assessed as histopathological change in kidney at 13 mg/kg, po pre-treated with compound for 6 days followed by triton WR-1339 induction and measured after 24 hrs by H&E staining based analysis; assay type: functional, organism-based; conditions: time 7.0 day
[3] = system: Mus musculus; assay: Antihyperglycemic activity against Triton WR-1339 induced hyperlipidemic male Swiss albino mouse model assessed as blood glucose level at 13 mg/kg, po pre-treated with compound for 6 days followed by triton WR-1339 induction and measured after 24 hrs by glucose meter analysis (reference value: 121.6 +/- 7.8); assay type: functional; conditions: time 7 day
[4] = system: Mus musculus; assay: (§1) Antihyperlipidemic activity against Triton WR-1339 induced hyperlipidemic male Swiss albino mouse model assessed as VLDL level in mouse blood at 13 mg/kg, po pre-treated with compound for 6 days followed by triton WR-1339 induction and measured after 24 hrs (reference value: 97.1 +/- 1 mg/dL); assay type: functional; conditions: time 7 day
[5] = system: HepaRG; assay: Cytotoxicity against human HepaRG cells assessed as mortality rate at 25 uM incubated for 30 mins by LDH assay relative to control; assay type: functional; conditions: 0.5 h
[6] = system: Mus musculus; assay: Antihyperlipidemic activity against Triton WR-1339 induced hyperlipidemic male Swiss albino mouse model assessed as TG level in mouse blood at 13 mg/kg, po pre-treated with compound for 6 days followed by triton WR-1339 induction and measured after 24 hrs (reference value: 485.3 +/- 4.8 mg/dL); assay type: functional; conditions: time 7 day
[7] = system: Mus musculus; assay: Antihyperlipidemic activity in Triton WR-1339 induced hyperlipidemic male Swiss albino mouse model assessed as change in carotid artery endothelial cells at 13 mg/kg, po pre-treated with compound for 6 days followed by triton WR-1339 induction and measured after 24 hrs by H&E staining based analysis; assay type: functional, organism-based; conditions: time 7.0 day
[8] = system: Mus musculus; assay: Antihyperlipidemic activity against Triton WR-1339 induced hyperlipidemic male Swiss albino mouse model assessed as LDL level in mouse blood at 13 mg/kg, po pre-treated with compound for 6 days followed by triton WR-1339 induction and measured after 24 hrs (reference value: 231.9 +/- 0.7 mg/dL); assay type: functional; conditions: time 7 day
[9] = system: Mus musculus; assay: as §1, with “as total cholesterol” for “as VLDL”, “value: 426.3” for “value: 97.1”, “+/- 2” for “+/- 1”; assay type: functional; conditions: time 7 day
[10] = system: Mus musculus; assay: Antihyperlipidemic activity against Triton WR-1339 induced hyperlipidemic male Swiss albino mouse model assessed as HDL level in mouse blood at 13 mg/kg, po pre-treated with compound for 6 days followed by triton WR-1339 induction and measured after 24 hrs (reference value: 97.4 +/- 1.2 mg/dL); assay type: functional; conditions: time 7 day
[11] = system: HepaRG; assay: Cytotoxicity against human HepaRG cells assessed as mortality rate at 250 uM incubated for 30 mins by LDH assay relative to control; assay type: functional; conditions: 0.5 h

CC(C)OC(=O)C(C)(C)Oc1ccc(C(=O)c2ccc(Cl)cc2)cc1 [FENOFIBRATE]
Activity [1]: Active
Activity [2]: Active
Activity [3]: 75 mg/dL
Activity [4]: 20.6 mg/dL
Activity [5]: 12%
Activity [6]: 103 mg/dL
Activity [7]: Active
Activity [8]: 54.4 mg/dL
Activity [9]: 135.7 mg/dL
Activity [10]: 58.7 mg/dL
Activity [11]: 18%
